Measurements from patent US20260070945A1, “MACROCYCLIC IMMUNOMODULATORS” (Bristol-Myers Squibb Company, priority 2022, published 2026).
*1 amine or outer side, *2 acyl side, *3 side chain or, on linkers, in order; H or OH if unused. Where a SMILES comes first, the peptide text is derived from it. Bridges are numbered along the chain shown (N, C = ends). [ ]: non-standard residue; d: D form. The star is where a group is joined. ξ: configuration not given here. Phe(4-COOH) = N[C@@H](Cc1ccc(C(=O)O)cc1)C(=O)O; Bip = N[C@@H](Cc1ccc(-c2ccccc2)cc1)C(=O)O; Phe(3-Me) = Cc1cccc(C[C@H](N)C(=O)O)c1; γGlu = O=C(O)[C@H](CCC(=O)[*:2])N[*:1]; Val(3-OH) = CC(C)(O)[C@H](N)C(=O)O; hArg = N=C(N)NCCCC[C@H](N)C(=O)O; 4Pal = N[C@@H](Cc1ccncc1)C(=O)O; Cha = N[C@@H](CC1CCCCC1)C(=O)O; Ile(3ξ) = CCC(C)[C@H](N)C(=O)O; Carboxymethyl = O=C(O)C*; NMeA = CN[C@@H](C)C(=O)O; Aun = NCCCCCCCCCCC(=O)O; Dab = NCC[C@H](N)C(=O)O; Dap = NC[C@H](N)C(=O)O; AEEA = NCCOCCOCC(=O)O; Ac3c = NC1(C(=O)O)CC1; Propargyl = C#CC*

molecular target: T1, PD-1/PD-L1 interaction (PE-labeled human PD-L1-Ig binding to Jurkat cell line over-expressing human PD-1) (Homo sapiens, UniProt Q15116); assay: Jurkat-PD-1 Cell Binding High-Content Screening Assay (CBA); conditions: Jurkat-hPD-1 cells, PE-labeled PD-L1-Ig 20 nM final; read-out: Jurkat HPD1 PDL1 IC50
T1 construct: expressed in transfected cells; host or cells: Jurkat
Method in brief: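 Jurkat-hPD-1 cells (8×10^3/well) in DMEM with 10% fetal calf serum were preincubated with compound for 2 h at 37 °C. PE-labeled PD-L1-Ig was then added at 20 nM final for 1 h. Cells were fixed in paraformaldehyde with Hoechst 33342, washed and imaged by high-content imaging.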

T1 sequence (Q15116 25-288): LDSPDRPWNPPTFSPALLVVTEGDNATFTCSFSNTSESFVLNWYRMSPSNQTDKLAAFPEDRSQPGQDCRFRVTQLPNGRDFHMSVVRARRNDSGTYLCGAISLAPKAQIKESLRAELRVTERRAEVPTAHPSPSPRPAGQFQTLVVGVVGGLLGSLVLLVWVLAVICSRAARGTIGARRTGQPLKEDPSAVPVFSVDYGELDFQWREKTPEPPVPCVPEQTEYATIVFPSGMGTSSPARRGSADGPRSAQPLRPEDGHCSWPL

| Structure (SMILES) | IC50 [nM] |
| --- | --- |
| Cc1cccc(C[C@@H]2NC(=O)[C@H](CC(=O)O)NC(=O)[C@H](Cc3ccc(OCC(=O)O)cc3)NC(=O)[C@H](Cc3ccc(OCC(=O)O)cc3)NC(=O)CSC[C@@H](C(=O)NC3(C(=O)NCCOCCOCC(=O)NCCCCCCCCCCC(=O)O)CC3)NC(=O)[C@H](CCCNC(=N)N)NC(=O)[C@H](C(C)C)NC(=O)[C@H](CC3CCCCC3)NC(=O)[C@H](CCN)NC(=O)[C@@H](CC(C)C)NC(=O)[C@H](C)N(C)C(=O)[C@H](C(C)C)NC(=O)[C@H](Cc3ccc(-c4ccccc4)cc3)NC(=O)[C@H](CC(C)C)NC2=O)c1 [Example 1250] ({CH2CO}-Y(Carboxymethyl)Y(Carboxymethyl)D[Phe(3-Me)]L[Bip]V[NMeA][dL][Dab][Cha]VRC[Ac3c][AEEA][Aun]-OH; thioether N-14) | 2.8 |
| Cc1cccc(C[C@@H]2NC(=O)[C@H](CC(=O)O)NC(=O)[C@H](Cc3ccc(C(=O)O)cc3)NC(=O)[C@H](Cc3ccncc3)NC(=O)CSC[C@@H](C(=O)N[C@@H](CC(N)=O)C(=O)NCCOCCOCC(=O)NCCCCCCCCCCC(=O)O)NC(=O)[C@H](CCC(=O)O)NC(=O)[C@H](C(C)(C)O)NC(=O)[C@H](CC3CCCCC3)NC(=O)[C@H](CCN)NC(=O)[C@@H](CC(C)C)NC(=O)[C@H](C)N(C)C(=O)[C@H](Cc3ccc(OCC(=O)O)cc3)NC(=O)[C@H](Cc3ccc(-c4ccccc4)cc3)NC(=O)[C@H](Cc3ccc(OCC(=O)O)cc3)NC2=O)c1 [Example 1428] ({CH2CO}-[4Pal][Phe(4-COOH)]D[Phe(3-Me)]Y(Carboxymethyl)[Bip]Y(Carboxymethyl)[NMeA][dL][Dab][Cha][Val(3-OH)]ECN[AEEA][Aun]-OH; thioether N-14) | 429 |
| C#CCOC[C@@H]1NC(=O)[C@H](C(C)C)NC(=O)[C@H](CC2CCCCC2)NC(=O)[C@H](CCN)NC(=O)[C@@H](CC(C)C)NC(=O)[C@H](C)N(C)C(=O)[C@H](Cc2ccc(OCC(=O)O)cc2)NC(=O)[C@H](Cc2ccc(-c3ccccc3)cc2)NC(=O)[C@H](Cc2ccc(OCC(=O)O)cc2)NC(=O)[C@H](Cc2c[nH]c3ccccc23)NC(=O)[C@H](CC(=O)O)NC(=O)[C@H](Cc2ccncc2)NC(=O)[C@H](Cc2ccc(OCC(=O)O)cc2)NC(=O)CSC[C@@H](C(=O)N[C@@H](CCN)C(=O)NCCOCCOCC(=O)NCCCCCCCCCCC(=O)O)NC1=O [Example 1103] ({CH2CO}-Y(Carboxymethyl)[4Pal]DWY(Carboxymethyl)[Bip]Y(Carboxymethyl)[NMeA][dL][Dab][Cha]VS(Propargyl)C[Dab][AEEA][Aun]-OH; thioether N-14) | 19 |
| Cc1cccc(C[C@@H]2NC(=O)[C@H](CC(=O)O)NC(=O)[C@H](Cc3ccncc3)NC(=O)[C@H](Cc3ccc(OCC(=O)O)cc3)NC(=O)CSC[C@@H](C(=O)N[C@@H](CCN)C(=O)NCCOCCOCC(=O)NCCCCCCCCCCC(=O)O)NC(=O)[C@H]([C@@H](C)O)NC(=O)[C@H](C(C)C)NC(=O)[C@H](CC3CCCCC3)NC(=O)[C@H](CC(N)=O)NC(=O)[C@@H](CC(C)C)NC(=O)[C@H](C)N(C)C(=O)[C@H](Cc3ccc(OCC(=O)O)cc3)NC(=O)[C@H](Cc3ccc(-c4ccccc4)cc3)NC(=O)[C@H](Cc3ccc(OCC(=O)O)cc3)NC2=O)c1 [Example 1357] ({CH2CO}-Y(Carboxymethyl)[4Pal]D[Phe(3-Me)]Y(Carboxymethyl)[Bip]Y(Carboxymethyl)[NMeA][dL]N[Cha]VTC[Dab][AEEA][Aun]-OH; thioether N-14) | 20.5 |
| CC(C)C[C@@H]1NC(=O)[C@H](Cc2c[nH]c3ccccc23)NC(=O)[C@H](CC(=O)O)NC(=O)[C@H](Cc2ccc(C(=O)O)cc2)NC(=O)[C@H](Cc2ccncc2)NC(=O)CSC[C@@H](C(=O)N[C@@H](CCN)C(=O)NCCOCCOCC(=O)NCCCCCCCCCCC(=O)O)NC(=O)[C@H](CCC(=O)O)NC(=O)[C@H](C(C)(C)O)NC(=O)[C@H](CC2CCCCC2)NC(=O)[C@H](CCN)NC(=O)[C@@H](CC(C)C)NC(=O)[C@H](C)N(C)C(=O)[C@H](C(C)C)NC(=O)[C@H](Cc2ccc(-c3ccccc3)cc2)NC1=O [Example 1429] ({CH2CO}-[4Pal][Phe(4-COOH)]DWL[Bip]V[NMeA][dL][Dab][Cha][Val(3-OH)]EC[Dab][AEEA][Aun]-OH; thioether N-14) | 143 |
| CCC(C)[C@@H]1NC(=O)[C@H](Cc2ccc(-c3ccccc3)cc2)NC(=O)[C@H](CC(C)C)NC(=O)[C@H](Cc2c[nH]c3ccccc23)NC(=O)[C@H](CC(=O)O)NC(=O)[C@H](Cc2ccc(C(=O)O)cc2)NC(=O)[C@H](Cc2ccc(OCC(=O)O)cc2)NC(=O)CSC[C@@H](C(=O)NCCOCCOCC(=O)N[C@@H](CN)C(=O)NCCCCCCCCCCC(=O)O)NC(=O)[C@H](CO)NC(=O)[C@H](C(C)C)NC(=O)[C@H](CC2CCCCC2)NC(=O)[C@H](CC(N)=O)NC(=O)[C@@H](CC(C)C)NC(=O)[C@H](C)N(C)C1=O (stereo partly drawn) [Example 2066] ({CH2CO}-Y(Carboxymethyl)[Phe(4-COOH)]DWL[Bip][Ile(3ξ)][NMeA][dL]N[Cha]VSC[AEEA][Dap][Aun]-OH; thioether N-14) | 110 |
| CC(C)C[C@@H]1NC(=O)[C@H](Cc2c[nH]c3ccccc23)NC(=O)[C@H](CC(=O)O)NC(=O)[C@H](Cc2ccc(C(=O)O)cc2)NC(=O)[C@H](Cc2ccc(OCC(=O)O)cc2)NC(=O)CSC[C@@H](C(=O)NCC(=O)N[C@@H](CCN)C(=O)NCCCCCCCCCCC(=O)O)NC(=O)[C@H](CO)NC(=O)[C@H](C(C)C)NC(=O)[C@H](CC2CCCCC2)NC(=O)[C@H](CCN)NC(=O)[C@H](CC(C)C)NC(=O)[C@H](C)N(C)C(=O)[C@H](C(C)C)NC(=O)[C@H](Cc2ccc(-c3ccccc3)cc2)NC1=O [Example 1037] ({CH2CO}-Y(Carboxymethyl)[Phe(4-COOH)]DWL[Bip]V[NMeA]L[Dab][Cha]VSCG[Dab][Aun]-OH; thioether N-14) | 13.6 |
| CCC(C)[C@@H]1NC(=O)[C@H](Cc2ccc(-c3ccccc3)cc2)NC(=O)[C@H](CC(C)C)NC(=O)[C@H](Cc2c[nH]c3ccccc23)NC(=O)[C@H](CC(=O)O)NC(=O)[C@H](Cc2ccc(OCC(=O)O)cc2)NC(=O)[C@H](CCCCNC(=N)N)NC(=O)CSC[C@@H](C(=O)NCCOCCOCC(=O)N[C@@H](CCC(=O)NCCCCCCCCCCC(=O)O)C(=O)O)NC(=O)[C@H](CO)NC(=O)[C@H](C(C)C)NC(=O)[C@H](CC(C)C)NC(=O)[C@H](CCN)NC(=O)[C@@H](CC(C)C)NC(=O)[C@H](C)N(C)C1=O (stereo partly drawn) [Example 2044] ({CH2CO}-[hArg]Y(Carboxymethyl)DWL[Bip][Ile(3ξ)][NMeA][dL][Dab]LVSC[AEEA][γGlu][Aun]-OH; thioether N-14) | 67 |

The next lines start with the values.

| IC50 [nM] | Structure (SMILES) |
| --- | --- |
| 14.6 | CC(C)C[C@H]1NC(=O)[C@H](C)N(C)C(=O)[C@H](C(C)C)NC(=O)[C@H](Cc2ccc(-c3ccccc3)cc2)NC(=O)[C@H](C(C)C)NC(=O)[C@H](Cc2c[nH]c3ccccc23)NC(=O)[C@H](CC(=O)O)NC(=O)[C@H](Cc2ccc(C(=O)O)cc2)NC(=O)[C@H](Cc2ccc(OCC(=O)O)cc2)NC(=O)CSC[C@@H](C(=O)N[C@@H](CCCCN)C(=O)NCCOCCOCC(=O)NCCCCCCCCCCC(=O)O)NC(=O)[C@H](CO)NC(=O)[C@H](C(C)C)NC(=O)[C@H](CC2CCCCC2)NC(=O)[C@H](CCN)NC1=O [Example 2101] ({CH2CO}-Y(Carboxymethyl)[Phe(4-COOH)]DWV[Bip]V[NMeA][dL][Dab][Cha]VSCK[AEEA][Aun]-OH; thioether N-14) |
| 9.6 | CC(C)C[C@@H]1NC(=O)[C@H](Cc2c[nH]c3ccccc23)NC(=O)[C@H](CC(=O)O)NC(=O)[C@H](Cc2ccc(C(=O)O)cc2)NC(=O)[C@H](Cc2ccc(OCC(=O)O)cc2)NC(=O)CSC[C@@H](C(=O)N[C@@H](CCN)C(=O)NCCOCCOCC(=O)NCCCCCCCCCCC(=O)O)NC(=O)[C@H](CO)NC(=O)[C@H](C(C)C)NC(=O)[C@H](CC2CCCCC2)NC(=O)[C@H](CCN)NC(=O)[C@@H](CC(C)C)NC(=O)[C@H](C)N(C)C(=O)[C@H](C(C)C)NC(=O)[C@H](Cc2ccc(-c3ccccc3)cc2)NC1=O [Example 2094] ({CH2CO}-Y(Carboxymethyl)[Phe(4-COOH)]DWL[Bip]V[NMeA][dL][Dab][Cha]VSC[Dab][AEEA][Aun]-OH; thioether N-14) |
| 13.4 | CC(C)C[C@@H]1NC(=O)[C@H](Cc2c[nH]c3ccccc23)NC(=O)[C@H](CC(=O)O)NC(=O)[C@H](Cc2ccc(C(=O)O)cc2)NC(=O)[C@H](Cc2ccc(OCC(=O)O)cc2)NC(=O)CSC[C@@H](C(=O)N[C@H](CC(N)=O)C(=O)NCCCCCCCCCCC(=O)O)NC(=O)[C@H](CO)NC(=O)[C@H](C(C)C)NC(=O)[C@H](CC2CCCCC2)NC(=O)[C@H](CCN)NC(=O)[C@@H](CC(C)C)NC(=O)[C@H](C)N(C)C(=O)[C@H](C(C)C)NC(=O)[C@H](Cc2ccc(-c3ccccc3)cc2)NC1=O [Example 2234] ({CH2CO}-Y(Carboxymethyl)[Phe(4-COOH)]DWL[Bip]V[NMeA][dL][Dab][Cha]VSC[dN][Aun]-OH; thioether N-14) |
| 20.9 | Cc1cccc(C[C@@H]2NC(=O)[C@H](CC(=O)O)NC(=O)[C@H](Cc3ccc(OCC(=O)O)cc3)NC(=O)[C@H](Cc3ccc(OCC(=O)O)cc3)NC(=O)CSC[C@@H](C(=O)N[C@@H](CCCCN)C(=O)NCCCCCCCCCCC(=O)O)NC(=O)[C@H](CN)NC(=O)[C@H](C(C)C)NC(=O)[C@H](CC3CCCCC3)NC(=O)[C@H](CCN)NC(=O)[C@@H](CC(C)C)NC(=O)[C@H](C)N(C)C(=O)[C@H](C(C)C)NC(=O)[C@H](Cc3ccc(-c4ccccc4)cc3)NC(=O)[C@H](C(C)C)NC2=O)c1 [Example 2376] ({CH2CO}-Y(Carboxymethyl)Y(Carboxymethyl)D[Phe(3-Me)]V[Bip]V[NMeA][dL][Dab][Cha]V[Dap]CK[Aun]-OH; thioether N-14) |
